The target in assay [1] is T1, TRPC5 (Homo sapiens, UniProt Q9UL62).
T1 sequence (Q9UL62 1-973): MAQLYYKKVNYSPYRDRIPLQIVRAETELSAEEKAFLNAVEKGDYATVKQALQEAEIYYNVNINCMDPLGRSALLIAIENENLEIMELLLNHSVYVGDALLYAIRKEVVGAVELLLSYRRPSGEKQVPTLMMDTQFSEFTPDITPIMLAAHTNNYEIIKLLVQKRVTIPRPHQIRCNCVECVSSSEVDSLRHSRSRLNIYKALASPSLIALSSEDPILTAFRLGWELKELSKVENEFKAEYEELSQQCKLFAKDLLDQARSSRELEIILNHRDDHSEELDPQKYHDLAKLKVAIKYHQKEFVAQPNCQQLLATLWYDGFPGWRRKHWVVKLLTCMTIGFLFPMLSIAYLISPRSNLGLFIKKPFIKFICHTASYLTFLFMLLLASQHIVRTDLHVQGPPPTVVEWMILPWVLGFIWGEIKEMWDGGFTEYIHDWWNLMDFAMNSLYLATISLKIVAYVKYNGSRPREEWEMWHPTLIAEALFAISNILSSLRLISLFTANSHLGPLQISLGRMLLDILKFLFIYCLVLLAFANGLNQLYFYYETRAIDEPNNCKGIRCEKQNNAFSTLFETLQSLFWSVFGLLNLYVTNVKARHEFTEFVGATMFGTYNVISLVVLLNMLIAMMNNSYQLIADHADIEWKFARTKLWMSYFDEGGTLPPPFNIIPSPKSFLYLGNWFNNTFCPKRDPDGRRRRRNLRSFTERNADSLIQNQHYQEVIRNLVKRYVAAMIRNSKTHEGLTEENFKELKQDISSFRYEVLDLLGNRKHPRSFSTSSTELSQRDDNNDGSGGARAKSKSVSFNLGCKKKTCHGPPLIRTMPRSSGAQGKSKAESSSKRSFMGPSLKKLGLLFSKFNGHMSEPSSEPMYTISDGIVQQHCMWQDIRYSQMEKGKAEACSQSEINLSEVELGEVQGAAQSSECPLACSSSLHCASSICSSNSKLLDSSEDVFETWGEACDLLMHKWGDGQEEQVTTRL
Details: host or cells: HEK239 (so in the source). The following applies: HEK239 cells expressing TRPC5; Naylor et al.; cited from earlier work.

The target in assay [2] is T1, TRPC5. Details: host or cells: HEK239 (so in the source). The settings on record: Mol Pharmacol. 2014; cited from earlier work.
The target of the next assay is T2, human TRPC4 (Homo sapiens, UniProt Q9UBN4).
T2 construct: expressed in transfected cells
T2 sequence (Q9UBN4 1-977): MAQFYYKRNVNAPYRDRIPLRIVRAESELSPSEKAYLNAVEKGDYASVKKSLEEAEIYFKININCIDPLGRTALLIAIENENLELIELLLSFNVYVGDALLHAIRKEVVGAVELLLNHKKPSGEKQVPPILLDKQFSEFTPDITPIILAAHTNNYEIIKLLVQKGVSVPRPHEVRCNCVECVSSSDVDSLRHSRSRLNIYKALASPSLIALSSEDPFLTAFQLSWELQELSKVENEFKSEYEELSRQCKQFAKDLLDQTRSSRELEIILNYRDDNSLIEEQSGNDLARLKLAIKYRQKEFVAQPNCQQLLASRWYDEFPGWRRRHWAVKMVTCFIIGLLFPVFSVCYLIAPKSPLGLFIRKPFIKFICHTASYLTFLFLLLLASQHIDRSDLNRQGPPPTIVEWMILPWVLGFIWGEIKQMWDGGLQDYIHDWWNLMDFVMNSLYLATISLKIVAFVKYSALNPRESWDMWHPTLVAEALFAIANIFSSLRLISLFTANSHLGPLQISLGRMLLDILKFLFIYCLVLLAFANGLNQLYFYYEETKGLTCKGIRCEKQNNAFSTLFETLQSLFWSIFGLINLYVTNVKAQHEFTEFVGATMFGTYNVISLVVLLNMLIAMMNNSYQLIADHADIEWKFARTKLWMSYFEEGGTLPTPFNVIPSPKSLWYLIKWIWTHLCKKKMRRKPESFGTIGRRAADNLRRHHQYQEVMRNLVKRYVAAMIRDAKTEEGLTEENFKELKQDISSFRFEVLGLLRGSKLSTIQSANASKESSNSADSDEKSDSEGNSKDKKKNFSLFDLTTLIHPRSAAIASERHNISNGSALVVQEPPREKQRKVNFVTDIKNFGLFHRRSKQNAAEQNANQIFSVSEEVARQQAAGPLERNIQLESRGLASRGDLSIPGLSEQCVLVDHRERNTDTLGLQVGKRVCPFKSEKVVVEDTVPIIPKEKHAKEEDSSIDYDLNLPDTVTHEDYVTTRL
The assay is described as follows: Intracellular Ca2+ measurement, HEK 293 cells expressing inducible human TRPC4, activated by (−)-Englerin A. In kind it is cell-based. The settings on record: 10 μM DE2, 30 min pre-incubation; EA 100 nM; FIG. 12. On the procedure: (§1) Cell culture Mouse stromal vascular fraction (SVF) cells from subcutaneous adipose tissue were isolated by mincing of the tissue followed by enzymatic digestion with 0.3 mg·mL^−1 Collagenase type II (Sigma), 0.3 mg·mL^−1 Collagenase type IV (Sigma), 2 mg·mL^−1 BSA (Sigma), 0.08 mg·mL^−1 DNase I (Sigma) and 0.04 mg·mL^−1 Dispase (Thermo Fisher Scientific) in serum free RPMI 1640 media (Gibco) for 45 min at 37° C. in 95% O2 and 5% CO2 environment. Isolated cells were centrifuged and processed through a 100 μm cell strainer. Following centrifugation, the cell pellet was reconstituted in full RPMI 1640 media containing 15% fetal calf serum and 1% penicillin-streptomycin (Gibco). Media was changed on the following day to remove non-adherent cells. […]
(§2) Intracellular Ca^2+ measurement HEK 293 cells containing stable incorporation of inducible TRPC4 or TRPC5 expression were seeded into 96-well clear-bottomed poly-D-lysine-coated black plates (Corning Life Sciences) at 90% confluence 24 hr before the experiment. […] The Fura-2-AM fluorescence was recorded using a 96-well fluorescence plate reader FlexStation II (Molecular Devices) at excitation wavelengths of 340 nm and 380 nm, and the emitted light was collected at 510 nm. […]

For assay [3], the system named is adipocytes from subcutaneous white adipose tissue of mice. Put plainly: Respirometry (oxygen consumption) in adipocytes. In kind it is cell-based. The following applies: 10 μM DE2, 24 hr pre-incubation; vs DMSO; FIG. 13. On the procedure:
Protein preparation and immunoblotting Proteins were isolated from cells and tissues using radio-immunoprecipitation assay (RIPA) buffer containing (in mM) 150 NaCl, 20 Tris HCl, 1 EGTA, 1 EDTA, 1% NP-40, 0.1% sodium dodecyl sulfate (SDS) and 1% sodium deoxylate. Complete™ protease inhibitor (Roche Life Science) was added into RIPA fresh before use in accordance with the manufacturer's instructions. Immunoblotting was carried out under standard protocols with primary antibodies anti-UCP1 (1:500, ab23841; Abcam), Cytochrome C (1:4000, ab110325; Abcam), Akt (pan) (1:1000, 4691; Cell Signaling) and Phospho-Akt (Ser473) (1:500, 4060; Cell Signaling). […] The cells were inoculated into the OROBOROS Oxygraph-2k chambers and oxidative phosphorylation analyses were performed using the mitochondrial substrate-uncoupler-inhibitor-titration protocol consisting of: substrate activation using sodium pyruvate, inhibition of ATP synthase using oligomycin, uncoupling via sequential addition of FCCP to maximum oxygen flux, mitochondria complex I and III inhibition using Rotenone and Antimycin A. Traces were analyzed using DatLab 6 Software (OROBOROS), measuring for routine state respiration (routine), mitochondrial leak (leak), maximum uncoupling capacity of the electron transport system (ETS) and rotenone and antimycin A-inhibited residual oxygen consumption (ROX). […]

In a further assay the test system is UCP1 and Cytochrome C. The assay is described as follows: mRNA analysis of UCP1 and Cytochrome C expression in adipocytes (beiging markers). In kind it is cell-based, mice. The settings on record: 10 μM DE2, 24 hr pre-incubation; vs DMSO; FIG. 14. On the procedure:
Quantitative RT-PCR analysis RNA from cell and tissue samples was obtained using TRIzol reagent (Thermo Fisher Scientific). 1 μg RNA was reverse-transcribed using High-Capacity cDNA Reverse Transcription Kit (Applied Biosystems) and RT-PCR analysis was performed using SYBR Select Masters Mix (Thermo Fisher Scientific) and LightCycler® 480 (Roche Life Science). The primers used are tabulated in Supplementary Table 1^34. Relative fold-change in expression was calculated using the comparative cycle method (2^−ΔΔCt) Mouse Gapdh gene was used as the reference.
To determine the influence of DE2 and C31 on expression of markers of white-to-brown adipocyte phenotypic switching, transcript accumulation of UCP1 and Cytochrome C was measured by mRNA analysis in adipocytes from subcutaneous white adipose tissue (n=4-5) of C4WT, C5WT, C4KO, and C5KO mice. Cells were pre-incubated with (24 hr) and maintained in 10 μM DE2 or 100 nM C31 where indicated. The vehicle control was DMSO.

Assay [4] addresses T1, TRPC5. Put plainly: Intracellular Ca2+ measurement, HEK 293 cells expressing inducible human TRPC5, activated by (−)-Englerin A. The format is cell-based. Also on record: expressed in transfected cells. The settings on record: 10 μM DE2, 30 min pre-incubation; EA 100 nM; FIG. 12. As for the experimental part:
as §1, §2

Structures are written as SMILES.

Turning to `O=C1O[C@H]([C@@H](O)CO)C(O)=C1O` [vitamin C], the “inhibition of TRPC5 ion channel function” value at TRPC5 [1] was “inhibitors”.

Take `O=c1c(O)c(-c2ccccc2)oc2cc(O)cc(O)c12` [galangin]: the “inhibition of TRPC5 ion channel function” value at TRPC5 [1] is listed as “inhibitors”.

As to `Clc1ccc(Cn2c(CN3CCCC3)nc3ccccc32)cc1` [Clemizole, clemizole], the “inhibition of TRPC5” value at TRPC5 [2] is “potent and selective inhibitor”.

Take `Oc1ccc(C=Cc2cc(O)cc(O)c2)cc1` [resveratrol]: on TRPC5 [1], the “inhibition of TRPC5 ion channel function” value is “inhibitors”.

For `CCN(CC)Cc1nc2ccccc2n1Cc1ccc(Cl)cc1` [DE2, ({1-[(4-Chlorophenyl)methyl]-1H-benzimidazol-2-yl}methyl)diethylamine], the “inhibition of TRPC4 channels (intracellular Ca2+)” value at human TRPC4 is “demonstrated inhibition”. Also, the adipocyte mitochondrial respiration entry in assay [3] was “increases”. Also, the “adipocyte UCP1/Cytochrome C expression” value in the assay on UCP1 and Cytochrome C was “increases”. Also, the “inhibition of TRPC5 channels (intracellular Ca2+)” value on TRPC5 [4] is listed as “demonstrated inhibition”.

(Values after patent US12053475B2, “TRPC ion channel inhibitors for use in therapy” (UNIVERSITY OF LEEDS, priority 2017, dated 2024).)
